Tests used:
Test in all cases: ITC direct binding
Design in all cases: species or system A. thaliana
FAMA_ACTL = target: T1, FAMA_ACTL (Arabidopsis thaliana, UniProt Q56YJ8)
T1 construct: FAMA-ACTL (306-414); GST (N, cleaved yes); made in house; host or cells: E. coli BL21

FAMA = target: T2, FAMA (Arabidopsis thaliana, UniProt Q56YJ8)
T2 construct: ΔNFAMA (190-414); made in house; host or cells: E. coli BL21

MUTE_ACTLE162A_E163A = target: T3, MUTE_ACTLE162A_E163A (Arabidopsis thaliana, UniProt Q9M8K6, E162A/E163A)
T3 construct: MUTE-ACTL (114-202); made in house; host or cells: E. coli BL21

SCRM_ACTL = target: T4, SCRM_ACTL (Arabidopsis thaliana, UniProt Q9LSE2)
T4 construct: SCRM-ACTL (405-494); GST (N, cleaved yes); made in house; host or cells: E. coli BL21
T4 sequence (Q9LSE2 405-494): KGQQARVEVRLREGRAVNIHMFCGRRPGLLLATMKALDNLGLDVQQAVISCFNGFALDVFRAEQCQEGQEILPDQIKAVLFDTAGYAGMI

SPCH_ACTL = target: T5, SPCH_ACTL (Arabidopsis thaliana, UniProt Q700C7)
T5 construct: SPCH-ACTL (285-364); GST (N, cleaved yes); made in house; host or cells: E. coli BL21

SCRM = target: T6, SCRM (Arabidopsis thaliana, UniProt Q9LSE2)
T6 construct: SCRM (1-494); made in house; host or cells: E. coli BL21
T6 sequence (Q9LSE2 1-494): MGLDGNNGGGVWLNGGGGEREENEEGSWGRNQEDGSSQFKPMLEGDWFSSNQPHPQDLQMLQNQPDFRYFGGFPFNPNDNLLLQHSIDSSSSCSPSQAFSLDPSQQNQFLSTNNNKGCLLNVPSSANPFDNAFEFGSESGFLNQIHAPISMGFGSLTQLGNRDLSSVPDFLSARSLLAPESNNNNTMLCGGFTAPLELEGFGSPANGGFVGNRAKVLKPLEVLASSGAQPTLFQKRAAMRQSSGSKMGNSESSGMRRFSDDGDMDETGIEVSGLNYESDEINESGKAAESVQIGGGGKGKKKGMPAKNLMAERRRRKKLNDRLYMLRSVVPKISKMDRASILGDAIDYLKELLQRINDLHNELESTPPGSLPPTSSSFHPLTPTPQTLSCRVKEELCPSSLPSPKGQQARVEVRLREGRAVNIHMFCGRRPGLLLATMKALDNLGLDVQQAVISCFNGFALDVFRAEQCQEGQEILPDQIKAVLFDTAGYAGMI

T5 sequence (Q700C7 285-364): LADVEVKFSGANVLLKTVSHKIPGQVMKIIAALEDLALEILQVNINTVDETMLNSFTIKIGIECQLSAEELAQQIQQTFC
T3 sequence (Q9M8K6 114-202 E162A/E163A): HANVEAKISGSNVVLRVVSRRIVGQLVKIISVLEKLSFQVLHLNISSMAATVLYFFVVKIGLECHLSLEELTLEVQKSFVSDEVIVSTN
T2 sequence (Q56YJ8 190-414): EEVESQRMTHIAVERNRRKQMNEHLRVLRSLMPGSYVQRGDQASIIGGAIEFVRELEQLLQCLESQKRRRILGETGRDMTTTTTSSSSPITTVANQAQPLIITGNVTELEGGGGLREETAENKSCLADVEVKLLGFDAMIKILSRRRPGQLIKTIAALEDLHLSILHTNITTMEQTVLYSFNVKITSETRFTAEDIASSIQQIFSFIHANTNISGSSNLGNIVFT
T1 sequence (Q56YJ8 306-414): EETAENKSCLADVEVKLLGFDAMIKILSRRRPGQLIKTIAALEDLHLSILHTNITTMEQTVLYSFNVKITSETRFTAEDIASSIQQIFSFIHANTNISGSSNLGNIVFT

Compound: O=C1C(c2ccccc2)=NC(NS(=O)(=O)c2ccccc2)(c2ccccc2)N1S(=O)(=O)c1ccccc1 (stereo not drawn) [Stomidazolone]
- -T△S (FAMA_ACTL): 4.8 ± 0.2
- Kd (FAMA_ACTL): 110 ± 13.8 µM
- △H (FAMA_ACTL): -8.2 ± 0.5
- -T△S (FAMA): 2.4 ± 0.3
- Kd (FAMA): 80.4 ± 4.1 µM
- △G (FAMA): -1.8 ± 0.2
- △H (FAMA): -4.2 ± 0.2
- -T△S (MUTE_ACTLE162A_E163A; MUTE_ACTL E162A_E163A): 3.1 ± 0.3
- Kd (MUTE_ACTLE162A_E163A; MUTE_ACTL E162A_E163A): 85.5 ± 5.5 µM
- △G (MUTE_ACTLE162A_E163A; MUTE_ACTL E162A_E163A): -4.5 ± 0.2
- △H (MUTE_ACTLE162A_E163A; MUTE_ACTL E162A_E163A): -7.6 ± 0.5
- increase in the Kd value versus wild-type MUTE (MUTE_ACTLE162A_E163A; authors' response to reviewers, data of the original Fig. S3): ~5 fold
- -T△S (SCRM_ACTL): 6.1 ± 0.2
- Kd (SCRM_ACTL): 78.4 ± 5.1 µM
- △G (SCRM_ACTL): -3.2 ± 0.2
- △H (SCRM_ACTL): -9.3 ± 0.4
- -T△S (SPCH_ACTL): 3.4 ± 0.2
- Kd (SPCH_ACTL): 96.8 ± 7.6 µM
- △G (SPCH_ACTL): -2.1 ± 0.2
- △H (SPCH_ACTL): -5.5 ± 0.3
- -T△S (SCRM): 4.1 ± 0.2
- Kd (SCRM): 71.5 ± 5.1 µM
- △G (SCRM): -4.8 ± 0.2
- △H (SCRM): -8.9 ± 0.2
